Data from the NIST ThermoML archive (doi:10.1016/j.fluid.2018.05.028).
Numbers after ± are expanded uncertainties.

Experiment: xn = mol fraction of the nth substance listed
Settings: 101 kPa, Liquid; for viscosity: Concentric cylinders viscometry; for speed of sound: Single path-length method; for mass density: Vibrating tube method

## CCCCCCCC/C=C\CCCCCCCC(=O)OCC [ethyl (Z)-9-octadeceneoate] + CCCO
293.15 K, x2 = 0
  viscosity: 6.413 ± 0.068 mPa·s
  speed of sound: 1394.2 ± 2 m/s
  mass density: 868.91 ± 1 kg/m3
293.15 K, x2 = 0.1
  viscosity: 6.028 ± 0.06 mPa·s
  speed of sound: 1389.8 ± 1.9 m/s
  mass density: 867.29 ± 0.97 kg/m3
293.15 K, x2 = 0.2
  viscosity: 5.695 ± 0.053 mPa·s
  speed of sound: 1384.1 ± 1.7 m/s
  mass density: 865.42 ± 0.93 kg/m3
293.15 K, x2 = 0.3
  viscosity: 5.368 ± 0.046 mPa·s
  speed of sound: 1377.6 ± 1.6 m/s
  mass density: 863.2 ± 0.9 kg/m3
293.15 K, x2 = 0.4
  viscosity: 5.016 ± 0.04 mPa·s
  speed of sound: 1370 ± 1.4 m/s
  mass density: 860.5 ± 0.87 kg/m3
293.15 K, x2 = 0.5
  viscosity: 4.643 ± 0.034 mPa·s
  speed of sound: 1360.7 ± 1.3 m/s
  mass density: 857.13 ± 0.85 kg/m3
293.15 K, x2 = 0.6
  viscosity: 4.238 ± 0.029 mPa·s
  speed of sound: 1349.2 ± 1.1 m/s
  mass density: 852.82 ± 0.84 kg/m3
293.15 K, x2 = 0.7
  viscosity: 3.8 ± 0.024 mPa·s
  speed of sound: 1333.8 ± 0.96 m/s
  mass density: 846.96 ± 0.82 kg/m3
293.15 K, x2 = 0.8
  viscosity: 3.299 ± 0.02 mPa·s
  speed of sound: 1312.4 ± 0.81 m/s
  mass density: 838.72 ± 0.82 kg/m3
293.15 K, x2 = 0.9
  viscosity: 2.748 ± 0.016 mPa·s
  speed of sound: 1279 ± 0.67 m/s
  mass density: 826.05 ± 0.81 kg/m3
298.15 K, x2 = 0
  viscosity: 5.653 ± 0.06 mPa·s
  speed of sound: 1376.2 ± 2 m/s
  mass density: 865.27 ± 1 kg/m3
298.15 K, x2 = 0.1
  viscosity: 5.318 ± 0.053 mPa·s
  speed of sound: 1371.8 ± 1.9 m/s
  mass density: 863.62 ± 0.97 kg/m3
298.15 K, x2 = 0.2
  viscosity: 5.028 ± 0.047 mPa·s
  speed of sound: 1366.1 ± 1.7 m/s
  mass density: 861.71 ± 0.93 kg/m3
298.15 K, x2 = 0.3
  viscosity: 4.736 ± 0.041 mPa·s
  speed of sound: 1359.7 ± 1.6 m/s
  mass density: 859.46 ± 0.9 kg/m3
298.15 K, x2 = 0.4
  viscosity: 4.427 ± 0.036 mPa·s
  speed of sound: 1352 ± 1.4 m/s
  mass density: 856.73 ± 0.87 kg/m3
298.15 K, x2 = 0.5
  viscosity: 4.102 ± 0.031 mPa·s
  speed of sound: 1342.7 ± 1.3 m/s
  mass density: 853.33 ± 0.85 kg/m3
298.15 K, x2 = 0.6
  viscosity: 3.742 ± 0.026 mPa·s
  speed of sound: 1331.2 ± 1.1 m/s
  mass density: 848.98 ± 0.84 kg/m3
298.15 K, x2 = 0.7
  viscosity: 3.357 ± 0.022 mPa·s
  speed of sound: 1315.9 ± 0.96 m/s
  mass density: 843.08 ± 0.82 kg/m3
298.15 K, x2 = 0.8
  viscosity: 2.93 ± 0.018 mPa·s
  speed of sound: 1294.6 ± 0.81 m/s
  mass density: 834.8 ± 0.82 kg/m3
298.15 K, x2 = 0.9
  viscosity: 2.455 ± 0.015 mPa·s
  speed of sound: 1261.3 ± 0.67 m/s
  mass density: 822.08 ± 0.81 kg/m3
303.15 K, x2 = 0
  viscosity: 4.986 ± 0.053 mPa·s
  speed of sound: 1358.4 ± 2 m/s
  mass density: 861.63 ± 1 kg/m3
303.15 K, x2 = 0.1
  viscosity: 4.693 ± 0.047 mPa·s
  speed of sound: 1353.9 ± 1.9 m/s
  mass density: 859.95 ± 0.97 kg/m3
303.15 K, x2 = 0.2
  viscosity: 4.435 ± 0.042 mPa·s
  speed of sound: 1348.3 ± 1.7 m/s
  mass density: 858.01 ± 0.93 kg/m3
303.15 K, x2 = 0.3
  viscosity: 4.183 ± 0.037 mPa·s
  speed of sound: 1341.8 ± 1.6 m/s
  mass density: 855.72 ± 0.89 kg/m3
303.15 K, x2 = 0.4
  viscosity: 3.915 ± 0.032 mPa·s
  speed of sound: 1334.2 ± 1.4 m/s
  mass density: 852.96 ± 0.87 kg/m3
303.15 K, x2 = 0.5
  viscosity: 3.629 ± 0.028 mPa·s
  speed of sound: 1324.8 ± 1.3 m/s
  mass density: 849.52 ± 0.85 kg/m3
303.15 K, x2 = 0.6
  viscosity: 3.312 ± 0.024 mPa·s
  speed of sound: 1313.4 ± 1.1 m/s
  mass density: 845.14 ± 0.84 kg/m3
303.15 K, x2 = 0.7
  viscosity: 2.98 ± 0.02 mPa·s
  speed of sound: 1298.1 ± 0.96 m/s
  mass density: 839.19 ± 0.82 kg/m3
303.15 K, x2 = 0.8
  viscosity: 2.603 ± 0.017 mPa·s
  speed of sound: 1276.9 ± 0.81 m/s
  mass density: 830.87 ± 0.82 kg/m3
303.15 K, x2 = 0.9
  viscosity: 2.186 ± 0.014 mPa·s
  speed of sound: 1243.8 ± 0.67 m/s
  mass density: 818.09 ± 0.81 kg/m3
308.15 K, x2 = 0
  viscosity: 4.424 ± 0.048 mPa·s
  speed of sound: 1340.8 ± 2 m/s
  mass density: 858.01 ± 1 kg/m3
308.15 K, x2 = 0.1
  viscosity: 4.167 ± 0.042 mPa·s
  speed of sound: 1336.3 ± 1.9 m/s
  mass density: 856.28 ± 0.97 kg/m3
308.15 K, x2 = 0.2
  viscosity: 3.94 ± 0.037 mPa·s
  speed of sound: 1330.6 ± 1.7 m/s
  mass density: 854.3 ± 0.93 kg/m3
308.15 K, x2 = 0.3
  viscosity: 3.719 ± 0.033 mPa·s
  speed of sound: 1324.2 ± 1.6 m/s
  mass density: 851.98 ± 0.89 kg/m3
308.15 K, x2 = 0.4
  viscosity: 3.482 ± 0.029 mPa·s
  speed of sound: 1316.5 ± 1.4 m/s
  mass density: 849.18 ± 0.87 kg/m3
308.15 K, x2 = 0.5
  viscosity: 3.23 ± 0.025 mPa·s
  speed of sound: 1307.2 ± 1.3 m/s
  mass density: 845.71 ± 0.85 kg/m3
308.15 K, x2 = 0.6
  viscosity: 2.956 ± 0.021 mPa·s
  speed of sound: 1295.7 ± 1.1 m/s
  mass density: 841.28 ± 0.84 kg/m3
308.15 K, x2 = 0.7
  viscosity: 2.657 ± 0.018 mPa·s
  speed of sound: 1280.4 ± 0.96 m/s
  mass density: 835.29 ± 0.83 kg/m3
308.15 K, x2 = 0.8
  viscosity: 2.324 ± 0.015 mPa·s
  speed of sound: 1259.4 ± 0.81 m/s
  mass density: 826.92 ± 0.82 kg/m3
308.15 K, x2 = 0.9
  viscosity: 1.955 ± 0.013 mPa·s
  speed of sound: 1226.5 ± 0.67 m/s
  mass density: 814.08 ± 0.81 kg/m3
313.15 K, x2 = 0
  viscosity: 3.919 ± 0.042 mPa·s
  speed of sound: 1323.3 ± 2 m/s
  mass density: 854.39 ± 1 kg/m3
313.15 K, x2 = 0.1
  viscosity: 3.697 ± 0.038 mPa·s
  speed of sound: 1318.8 ± 1.9 m/s
  mass density: 852.62 ± 0.96 kg/m3
313.15 K, x2 = 0.2
  viscosity: 3.497 ± 0.033 mPa·s
  speed of sound: 1313.1 ± 1.7 m/s
  mass density: 850.61 ± 0.93 kg/m3
313.15 K, x2 = 0.3
  viscosity: 3.305 ± 0.03 mPa·s
  speed of sound: 1306.6 ± 1.6 m/s
  mass density: 848.24 ± 0.89 kg/m3
313.15 K, x2 = 0.4
  viscosity: 3.1 ± 0.026 mPa·s
  speed of sound: 1299 ± 1.4 m/s
  mass density: 845.4 ± 0.87 kg/m3
313.15 K, x2 = 0.5
  viscosity: 2.882 ± 0.023 mPa·s
  speed of sound: 1289.6 ± 1.3 m/s
  mass density: 841.89 ± 0.85 kg/m3
313.15 K, x2 = 0.6
  viscosity: 2.645 ± 0.02 mPa·s
  speed of sound: 1278.2 ± 1.1 m/s
  mass density: 837.41 ± 0.84 kg/m3
313.15 K, x2 = 0.7
  viscosity: 2.384 ± 0.017 mPa·s
  speed of sound: 1262.9 ± 0.96 m/s
  mass density: 831.37 ± 0.83 kg/m3
313.15 K, x2 = 0.8
  viscosity: 2.09 ± 0.015 mPa·s
  speed of sound: 1241.9 ± 0.81 m/s
  mass density: 822.94 ± 0.82 kg/m3
313.15 K, x2 = 0.9
  viscosity: 1.76 ± 0.013 mPa·s
  speed of sound: 1209.2 ± 0.67 m/s
  mass density: 810.04 ± 0.81 kg/m3
318.15 K, x2 = 0
  viscosity: 3.554 ± 0.039 mPa·s
  speed of sound: 1306 ± 2 m/s
318.15 K, x2 = 0.1
  viscosity: 3.354 ± 0.034 mPa·s
  speed of sound: 1301.4 ± 1.9 m/s
318.15 K, x2 = 0.2
  viscosity: 3.171 ± 0.031 mPa·s
  speed of sound: 1295.7 ± 1.7 m/s
318.15 K, x2 = 0.3
  viscosity: 2.996 ± 0.027 mPa·s
  speed of sound: 1289.2 ± 1.6 m/s
318.15 K, x2 = 0.4
  viscosity: 2.808 ± 0.024 mPa·s
  speed of sound: 1281.6 ± 1.4 m/s
318.15 K, x2 = 0.5
  viscosity: 2.606 ± 0.021 mPa·s
318.15 K, x2 = 0.6
  viscosity: 2.388 ± 0.018 mPa·s
318.15 K, x2 = 0.7
  viscosity: 2.147 ± 0.016 mPa·s
318.15 K, x2 = 0.8
  viscosity: 1.882 ± 0.014 mPa·s
318.15 K, x2 = 0.9
  viscosity: 1.584 ± 0.012 mPa·s
